Source: PMC9804781, “Identification of a Novel Pseudo‐Natural Product Type IV IDO1 Inhibitor Chemotype” (Angewandte Chemie (International Ed. in English), 2022)

Legend:
[1] = test system: IDO1 protein levels; test: IDO1 protein levels (immunoblotting, In-Cell Western); format: cell-based; conditions: immunoblotting (HeLa, IFN-γ, 24 h) and in-Cell western
Description: Kit (QIAGEN, DE) following the manufacturer’s procedure. DNA was removed on column by […]
DNase digestion with RNase-free DNase Set (QIAGEN, DE) according to the manufacturer’s […]
instructions. Following the manufacturer’s protocol, cDNA templates were synthesized from […]
800 ng total RNA using the QuantiTect Reverse Transcription Kit (QIAGEN, DE).
The expression levels of the IDO1 gene and the reference GAPDH were assessed by real-time […]
quantitative PCR (qPCR). Therefore, 120 ng cDNA was amplified using 500 nM of gene-specific […]
primers and SsoAdvanced Universal SYBR Green Supermix (Bio-Rad Laboratories, DE) in a total […]
volume of 10 µL for 50 cycles using the CFX96 Touch™ Real-Time PCR Detection System (Bio- […]
Rad Laboratories, DE). Relative IDO1 expression levels were calculated using the ΔΔCt method […]
with GAPDH as reference gene[17] and represented using GraphPad Prism 9.0 (GraphPad […]
and homogenized by sonication. Protein concentration was determined using the DC Protein […]
11 µM rhIDO1 was incubated with compounds at indicated concentrations for 60 min at 37°C in 50 mM potassium phosphate buffer (16.9 mM K2HPO4, 33.1 mM, KH2PO4, pH 6.5). The thermal protein stability from 20°C to 90°C (1°C/min) was measured by means of the intrinsic tryptophan/tyrosine fluorescence using the Prometheus™ NT.48 (NanoTemper® Technologies, […]

[2] = Stability of Apoxidole-1 in Serum; format: in vitro ADME; conditions: 400 µM in FBS, 37°C, up to 48 h
Description: transparent microplates (UV-STAR®, Greiner AG, AT). Subsequently, absorbance spectra from 250 nm to 550 nm were recorded on the Spark® Multimode Microplate Reader (Tecan, AT).
SKOV-3 cells (1.25 x 10^6 cells/flask) were seeded in two T75 tissue culture flasks and incubated for 24 h prior to addition of 17.6 ng/mL IFN-γ and 10 µM succinylacetone (SA, heme synthesis inhibitor). After 24 h, cells were treated with the compound (C) or DMSO (V, vehicle) for 15 min at 37°C. Cells were detached with trypsin/EDTA and washed thrice in cold PBS after resuspension in cold PBS. C- and V-treated samples were distributed equally into ten tubes each and subjected to heating at different temperatures in the MasterCycler EpGradient S (Eppendorf SE, DE). Afterwards, NP-40 alternative was added to a final concentration of 0.4% (v/v) and cells were lysed by five consecutive freeze/thaw cycles. Soluble fractions were separated from denatured proteins by centrifugation at 100,000 x g and 4°C for 20 min. […]
A truncated version of recombinant human GST-IDO1 (rhIDO1) consisting of amino acids 5-400 of the 403 amino acid-long full-length human IDO1 was expressed in E. coli and purified as published previously.[15] The heme cofactor was released from IDO1 by overnight incubation with 2-mercaptoethanesulfonate (MESNA) as described previously[18] and heme occupancy was determined by UV/Vis spectrophotometry. […]

CCOC(=O)C1=CC[C@](C(=O)OC)(c2cc3ccccc3n2C)N(S(=O)(=O)c2ccc(C)cc2)[C@@H]1C(=O)OC(C)(C)C [Compound 3d]
level of the IDO1 protein [1]: did not alter the level of the IDO1 protein
integrity of the compound in serum [2]: confirmed
